From patent US20200308220A1, “AROMATIC-CATIONIC PEPTIDES CONJUGATED TO AN[…] THEIR USE IN TREATING COMPLEX REGIONAL PAIN SYNDROME” (priority 2015, published 2020)
Where a SMILES comes first, the peptide text is derived from it.

Legend:
[1] = molecular target: T1, μ receptors (Rattus norvegicus, UniProt P33535); assay: Receptor binding, displacement of [3H]DAMGO from rat brain membrane binding sites
T1 construct: from tissue; host or cells: rat brain membranes
Method: (§1) Peptide conjugates of Table 5 were tested in functional assays based on inhibition of electrically evoked contractions of the guinea pig ileum (GPI) and the mouse vas deferens (MVD). The GPI assay is representative for μ opioid receptor (MOR) interactions, whereas in the MVD assay opioid effects are primarily mediated by the δ opioid receptor (DOR). The assays were carried out as described in DiMaio et al., J. Med. Chem. (1982) 25, 1432-1438. Binding affinities for μ and δ receptors were determined by displacing, respectively, [^3H]DAMGO and [^3H]DSLET from rat brain membrane binding sites (see Schiller et al., Biochem. Biophys. Res. Commun. (1978) 85, 1332-1338).

[2] = molecular target: T2, δ receptors (Rattus norvegicus, UniProt P33533); assay: Receptor binding, displacement of [3H]DSLET from rat brain membrane binding sites
T2 construct: from tissue; host or cells: rat brain membranes
Method: as §1

[3] = tested on: CPIP rats; assay: Chronic post-ischemia pain (CPIP) rat model of CRPS-I, reversal of mechanical allodynia
Method: H-Dmt-D-Arg-Phe-Lys(NH-TEMPO)-NH2 was tested in a chronic post-ischemia pain (CPIP) rat model (see Coderre et al., Pain (2004) 112, 94-105) of CRPS-I in comparison with [Dmt^1]DALDA and morphine (subcutaneous (s.c.) administration). The analgesic potencies (ED50 values) of the compounds were determined based on their ability to reverse mechanical allodynia in CPIP rats (Table 6).

[4] = molecular target: T3, δ opioid receptor (DOR) (Mus musculus, UniProt P32300); assay: Inhibition of electrically evoked contractions of the mouse vas deferens (MVD); format: cell-based
T3 construct: the guinea pig ileum (GPI) and the mouse vas deferens (MVD); from tissue; host or cells: mouse vas deferens
Method: as §1

T3 sequence (P32300 whole entry): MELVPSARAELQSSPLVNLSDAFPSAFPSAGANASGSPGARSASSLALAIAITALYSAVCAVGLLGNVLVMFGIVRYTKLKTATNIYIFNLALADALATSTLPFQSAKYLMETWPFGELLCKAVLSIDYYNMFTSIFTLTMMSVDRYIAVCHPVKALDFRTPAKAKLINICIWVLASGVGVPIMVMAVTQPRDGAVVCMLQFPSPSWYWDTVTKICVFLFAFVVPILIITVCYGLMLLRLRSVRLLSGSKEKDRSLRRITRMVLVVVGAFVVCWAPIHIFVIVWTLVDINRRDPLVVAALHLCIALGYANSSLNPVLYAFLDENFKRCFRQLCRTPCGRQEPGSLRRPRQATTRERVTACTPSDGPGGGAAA
T2 sequence (P33533 whole entry): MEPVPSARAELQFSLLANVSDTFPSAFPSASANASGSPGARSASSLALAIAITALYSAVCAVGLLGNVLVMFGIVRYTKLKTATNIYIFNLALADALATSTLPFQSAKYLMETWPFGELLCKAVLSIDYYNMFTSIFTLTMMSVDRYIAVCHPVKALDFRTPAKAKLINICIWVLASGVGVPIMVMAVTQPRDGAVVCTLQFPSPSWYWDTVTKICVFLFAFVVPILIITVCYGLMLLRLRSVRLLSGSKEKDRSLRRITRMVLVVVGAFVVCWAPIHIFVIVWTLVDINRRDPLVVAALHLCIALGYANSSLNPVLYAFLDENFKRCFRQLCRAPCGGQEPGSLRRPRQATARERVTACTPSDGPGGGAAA
T1 sequence (P33535 whole entry): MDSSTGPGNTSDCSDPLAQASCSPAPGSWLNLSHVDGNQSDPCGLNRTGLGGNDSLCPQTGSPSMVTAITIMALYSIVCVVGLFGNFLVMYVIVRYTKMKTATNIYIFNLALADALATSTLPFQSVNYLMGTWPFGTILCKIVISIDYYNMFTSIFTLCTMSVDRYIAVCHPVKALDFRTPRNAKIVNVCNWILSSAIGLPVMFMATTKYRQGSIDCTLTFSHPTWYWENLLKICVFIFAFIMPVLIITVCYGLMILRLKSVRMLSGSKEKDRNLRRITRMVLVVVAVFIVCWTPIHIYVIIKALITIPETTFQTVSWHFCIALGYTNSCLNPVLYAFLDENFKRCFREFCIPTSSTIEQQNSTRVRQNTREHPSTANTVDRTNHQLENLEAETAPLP

Cc1cc(O)cc(C)c1C[C@H](N)C(=O)N[C@H](CCCNC(=N)N)C(=O)N[C@@H](Cc1ccccc1)C(=O)NC(CCCCNC1CC(C)(C)N([O])C(C)(C)C1)C(N)=O (stereo partly drawn) [H-Dmt-D-Arg-Phe-Lys(NH-TEMPO)-NH2]
Ki [1]: 0.263 nM | Ki [2]: 30.4 nM | crossing the blood-brain barrier ([3]; inferred from centrally mediated analgesic effect after s.c. dosing): capable of crossing the blood-brain barrier | IC50 [4]: 1.15 nM

Cc1cc(O)cc(C)c1C[C@H](N)C(=O)N[C@H](CCCNC(=N)N)C(=O)N[C@@H](Cc1ccccc1)C(=O)N[C@@H](CCCCNC(=O)[C@@]1(C)CCc2c(C)c(O)c(C)c(C)c2O1)C(N)=O [H-Dmt-D-Arg-Phe-Lys(Tro[R])-NH2]
Ki [1]: 0.273 nM | Ki [2]: 3.64 nM | IC50 [4]: 0.847 nM

Cc1cc(O)cc(C)c1C[C@H](N)C(=O)N[C@H](CCCNC(=N)N)C(=O)N[C@@H](Cc1ccccc1)C(=O)N[C@@H](CCCCNC(=O)[C@]1(C)CCc2c(C)c(O)c(C)c(C)c2O1)C(N)=O [H-Dmt-D-Arg-Phe-Lys(Tro[S])-NH2, H-Dmt-D-Arg-Phe-Lys(Tro[S])—NH2]
Ki [1]: 0.252 nM | Ki [2]: 3.48 nM | IC50 [4]: 3.76 nM

Cc1cc(O)cc(C)c1C[C@H](N)C(=O)N[C@H](CCCNC(=N)N)C(=O)N[C@@H](Cc1ccccc1)C(=O)N[C@@H](CCCCN)C(N)=O [H-Dmt-D-Arg-Phe-Lys-NH2]
ED50 ± SEM (analgesic potency) ([3]; reversal of mechanical allodynia in CPIP rats, s.c. administration): 0.103 ± 0.046 mg/kg

Cc1cc(O)cc(C)c1C[C@H](N)C(=O)N[C@H](CCCNC(=N)N)C(=O)N[C@@H](Cc1ccccc1)C(=O)N[C@@H](CCCCN)C(=O)NCCC(=O)NC1CC(C)(C)N([O])C(C)(C)C1 [H-Dmt-D-Arg-Phe-Lys-NH—(CH2)2—CO—NH-TEMPO] (HELM PEPTIDE1{[Cc1cc(O)cc(C)c1C[C@H](N)C(=O)[*:2]].[dR].F.K.[bAla].[CC1(C)CC(N[*:1])CC(C)(C)N1[O]]}$$$$V2.0)
Ki [1]: 4.56 nM | Ki [2]: 2.15 nM | IC50 [4]: 262 nM

CN1CC[C@]23c4c5ccc(O)c4O[C@H]2[C@@H](O)C=C[C@H]3[C@H]1C5 [morphine]
ED50 ([3]; Rattus norvegicus, sc, read-out: ED50 ± SEM (analgesic potency)): 1.55 ± 0.664 mg/kg | Potency Ratio ([3]; relative to morphine (=1), CPIP rats, s.c.): 1
